{
  "source": "ChEMBL document CHEMBL6087464",
  "about": "“Design, Synthesis, and Biological Evaluation of 3,4-Dihydroisoquinolin-1(2H)-one Derivatives as Protein Arginine Methyltransferase 5 Inhibitors for the Treatment of Non-Hodgkin's Lymphoma” (J Med Chem, 2025)",
  "key": {"[1]": {"target": "Protein arginine N-methyltransferase 5 (Homo sapiens) (UniProt O14744)", "sequence (O14744 whole entry)": "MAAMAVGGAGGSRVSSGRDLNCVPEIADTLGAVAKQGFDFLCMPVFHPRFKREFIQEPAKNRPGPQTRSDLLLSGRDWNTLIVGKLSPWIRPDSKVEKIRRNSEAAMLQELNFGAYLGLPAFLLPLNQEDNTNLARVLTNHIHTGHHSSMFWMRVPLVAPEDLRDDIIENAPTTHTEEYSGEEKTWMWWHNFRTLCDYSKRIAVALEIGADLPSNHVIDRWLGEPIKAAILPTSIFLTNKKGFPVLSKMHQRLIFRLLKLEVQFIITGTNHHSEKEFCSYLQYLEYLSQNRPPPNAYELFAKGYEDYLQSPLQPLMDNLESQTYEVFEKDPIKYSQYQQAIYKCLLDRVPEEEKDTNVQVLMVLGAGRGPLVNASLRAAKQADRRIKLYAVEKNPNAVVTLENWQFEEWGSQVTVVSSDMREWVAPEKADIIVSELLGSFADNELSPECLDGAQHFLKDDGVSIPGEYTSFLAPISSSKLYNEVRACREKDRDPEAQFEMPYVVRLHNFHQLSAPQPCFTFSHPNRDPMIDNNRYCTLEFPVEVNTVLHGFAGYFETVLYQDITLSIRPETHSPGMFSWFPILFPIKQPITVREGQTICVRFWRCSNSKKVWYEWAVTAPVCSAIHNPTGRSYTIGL", "test": "Inhibition of PRMT5 in human Z138 cells assessed as decrease in symmetric dimethyl arginine level incubated for 48 hrs by Western blot analysis", "format": "cell-based", "details": "dose 0.005-5 µM"}, "Cytochrome P450 2D6": {"target": "Cytochrome P450 2D6 (Homo sapiens, UniProt P10635)", "sequence (P10635 whole entry)": "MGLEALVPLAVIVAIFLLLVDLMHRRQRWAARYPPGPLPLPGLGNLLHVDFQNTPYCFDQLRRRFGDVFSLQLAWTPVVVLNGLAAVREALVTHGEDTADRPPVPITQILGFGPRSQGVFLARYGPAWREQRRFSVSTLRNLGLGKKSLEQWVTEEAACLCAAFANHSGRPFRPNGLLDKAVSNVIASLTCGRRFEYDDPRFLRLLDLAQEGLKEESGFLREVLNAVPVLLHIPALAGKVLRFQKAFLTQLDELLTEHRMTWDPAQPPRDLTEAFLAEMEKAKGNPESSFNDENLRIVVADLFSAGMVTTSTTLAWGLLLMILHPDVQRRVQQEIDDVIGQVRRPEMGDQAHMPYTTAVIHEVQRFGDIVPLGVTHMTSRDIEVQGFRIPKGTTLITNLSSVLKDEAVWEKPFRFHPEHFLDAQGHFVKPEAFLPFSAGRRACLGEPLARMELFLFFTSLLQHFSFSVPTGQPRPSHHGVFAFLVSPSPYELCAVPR", "test": "Inhibition of CYP2D6 (unknown origin)", "format": "ADME"}, "[2]": {"test": "Metabolic stability in mouse liver microsomes assessed as half-life at 1 uM measured upto 240 mins", "format": "ADME, Microsome"}, "[3]": {"test": "Protein binding in Sprague-Dawley rat plasma", "format": "ADME, cell-free", "details": "read-out: PPB (converted)"}, "[4]": {"test": "Toxicity in Sprague-Dawley rat assessed as structural changes in bone marrow at 31.25 to 125 mg/kg, po administered once a day for 14 days by H and E staining based analysis", "format": "organism-based", "details": "in vivo, 336 h, dose 31.25-125 mg/kg, time 14 day"}, "PRMT5/MEP50 complex [5]": {"target": "T1, PRMT5/MEP50 complex (Homo sapiens, UniProt O14744)", "T1 sequence (O14744 whole entry)": "as the sequence (O14744 whole entry) above", "T1 sequence (Q9BQA1 whole entry, further chain)": "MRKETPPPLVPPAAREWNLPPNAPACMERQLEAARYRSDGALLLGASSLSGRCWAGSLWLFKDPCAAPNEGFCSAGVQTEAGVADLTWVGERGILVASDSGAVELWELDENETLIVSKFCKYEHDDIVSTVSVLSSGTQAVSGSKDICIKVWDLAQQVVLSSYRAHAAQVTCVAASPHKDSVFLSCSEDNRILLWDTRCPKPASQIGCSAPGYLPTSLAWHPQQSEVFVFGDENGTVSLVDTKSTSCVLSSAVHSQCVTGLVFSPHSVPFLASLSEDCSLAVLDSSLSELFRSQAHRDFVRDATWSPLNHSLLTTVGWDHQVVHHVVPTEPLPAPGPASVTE", "test": "Inhibition of recombinant N-terminal FLAG-tagged human full-length PRMT5/full length human MEP50 extracted from baculovirus expression system using [3H]-SAM as substrate preincubated for 15 mins followed by substrate addition and measured after 60 mins by multimode plate reader analysis"}, "Ishikawa": {"tested_on": "Ishikawa", "test": "Antiproliferative activity against human Ishikawa cells measured after 4 to 5 days by CCK-8 assay", "format": "functional, cell-based"}, "[6]": {"target": "Protein arginine N-methyltransferase 5 (Homo sapiens) (UniProt O14744)", "test": "In vivo inhibition of PRMT5 in female SCID.BG nude mouse xenografted with human Z138 cells assessed as decrease in SmD3me2s level at 12.5 to 50 mg/kg, po administered twice a day for 21 days by Western blotting analysis", "format": "functional, organism-based", "details": "dose 12.5-50 mg/kg, time 21.0 day"}, "[7]": {"test": "Protein binding in dog plasma", "format": "ADME, cell-free, Canis lupus familiaris", "details": "read-out: PPB (converted)"}, "A549": {"tested_on": "A549", "test": "Antiproliferative activity against human A549 cells measured after 4 to 5 days by CCK-8 assay", "format": "functional, cell-based"}, "Cytochrome P450 3A4": {"target": "Cytochrome P450 3A4 (Homo sapiens, UniProt P08684)", "sequence (P08684 whole entry)": "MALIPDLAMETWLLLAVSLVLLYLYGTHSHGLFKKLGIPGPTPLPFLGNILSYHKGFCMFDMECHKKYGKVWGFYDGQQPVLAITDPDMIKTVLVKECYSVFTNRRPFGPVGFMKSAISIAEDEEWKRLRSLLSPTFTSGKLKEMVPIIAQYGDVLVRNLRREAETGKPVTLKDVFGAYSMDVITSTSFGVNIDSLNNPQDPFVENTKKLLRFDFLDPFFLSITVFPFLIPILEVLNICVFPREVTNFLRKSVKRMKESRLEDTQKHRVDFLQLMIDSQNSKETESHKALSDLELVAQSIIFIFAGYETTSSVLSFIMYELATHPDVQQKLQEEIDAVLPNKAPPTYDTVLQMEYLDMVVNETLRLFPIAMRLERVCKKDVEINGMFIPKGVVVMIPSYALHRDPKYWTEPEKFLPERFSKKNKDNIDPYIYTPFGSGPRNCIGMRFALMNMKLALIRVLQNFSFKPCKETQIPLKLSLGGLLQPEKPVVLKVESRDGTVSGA", "test": "Inhibition of CYP3A4 (unknown origin) using testosterone as substrate", "format": "ADME"}, "T47D": {"tested_on": "T47D", "test": "Antiproliferative activity against human T47D cells measured after 4 to 5 days by CCK-8 assay", "format": "functional, cell-based"}, "PRMT5/MEP50 complex [8]": {"target": "PRMT5/MEP50 complex (Homo sapiens, UniProt O14744+Q9BQA1)", "test": "Binding affinity to PRMT5/MEP50 (unknown origin) at 5 uM by SPR analysis", "format": "protein-complex assay"}, "PRMT5/MEP50 complex [9]": {"target": "T1, PRMT5/MEP50 complex", "test": "Binding affinity to PRMT5/MEP50 (unknown origin) assessed as dissociation constant by SPR analysis", "format": "protein-complex assay"}, "[10]": {"test": "Metabolic stability in dog liver microsomes assessed as half-life at 1 uM measured upto 240 mins", "format": "ADME, Canis lupus familiaris, Microsome"}, "Cytochrome P450 2C9": {"target": "Cytochrome P450 2C9 (Homo sapiens, UniProt P11712)", "sequence (P11712 whole entry)": "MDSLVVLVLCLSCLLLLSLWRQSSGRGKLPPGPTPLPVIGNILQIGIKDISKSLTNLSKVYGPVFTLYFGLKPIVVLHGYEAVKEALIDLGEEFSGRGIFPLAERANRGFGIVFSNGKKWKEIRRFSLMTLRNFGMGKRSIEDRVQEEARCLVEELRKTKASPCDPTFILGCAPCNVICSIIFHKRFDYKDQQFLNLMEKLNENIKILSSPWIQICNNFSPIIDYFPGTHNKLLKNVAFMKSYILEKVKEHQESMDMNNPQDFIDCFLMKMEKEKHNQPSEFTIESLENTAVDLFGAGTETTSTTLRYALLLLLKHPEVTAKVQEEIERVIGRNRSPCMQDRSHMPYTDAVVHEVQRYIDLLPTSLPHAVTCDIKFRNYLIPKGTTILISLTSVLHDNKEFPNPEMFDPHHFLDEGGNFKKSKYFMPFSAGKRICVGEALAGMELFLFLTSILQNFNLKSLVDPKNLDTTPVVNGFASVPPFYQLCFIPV", "test": "Inhibition of CYP2C9 (unknown origin)", "format": "ADME"}, "[11]": {"test": "Toxicity in Sprague-Dawley rat assessed as animal death at 31.25 to 125 mg/kg, po administered once a day for 14 days", "format": "organism-based", "details": "in vivo, 336 h, dose 31.25-125 mg/kg, time 14 day"}, "[12]": {"test": "Toxicity in Sprague-Dawley rat assessed as morphological changes in caecum at 31.25 to 125 mg/kg, po administered once a day for 14 days by H and E staining based analysis", "format": "organism-based", "details": "in vivo, 336 h, dose 31.25-125 mg/kg, time 14 day"}, "MOLM-13": {"tested_on": "MOLM-13", "test": "Antiproliferative activity against human MOLM-13 cells measured after 4 to 5 days by CCK-8 assay", "format": "functional, cell-based"}, "A-427": {"tested_on": "A-427", "test": "Antiproliferative activity against human A-427 cells measured after 4 to 5 days by CCK-8 assay", "format": "functional, cell-based"}, "[13]": {"test": "Protein binding in mouse plasma", "format": "ADME, cell-free", "details": "read-out: PPB (converted)"}, "[14]": {"test": "Metabolic stability in rat liver microsomes assessed as half-life at 1 uM measured upto 240 mins", "format": "ADME, Microsome"}, "Z-138 [15]": {"tested_on": "Z-138", "test": "Antitumor activity against human Z138 cells xenografted in female SCID.BG nude mouse assessed as tumor growth inhibition at 12.5 mg/kg, po administered twice a day for 21 days relative to control", "format": "functional", "details": "Z-138, 504 h, time 21 day, read-out: TGI"}, "[16]": {"test": "Toxicity in Sprague-Dawley rat assessed as morphological changes in spleen at 31.25 to 125 mg/kg, po administered once a day for 14 days by H and E staining based analysis", "format": "organism-based", "details": "in vivo, 336 h, dose 31.25-125 mg/kg, time 14 day"}, "[17]": {"test": "Toxicity in Sprague-Dawley rat assessed as structural changes in spleen at 31.25 to 125 mg/kg, po administered once a day for 14 days by H and E staining based analysis", "format": "organism-based", "details": "in vivo, 336 h, dose 31.25-125 mg/kg, time 14 day"}, "Z-138 [18]": {"tested_on": "Z-138", "test": "Antitumor activity against human Z138 cells xenografted in female SCID.BG nude mouse assessed as tumor growth inhibition at 25 mg/kg, po administered twice a day for 21 days relative to control", "format": "functional", "details": "Z-138, 504 h, time 21 day, read-out: TGI"}},
  "note": "Active and inactive are the calls of the source. The calls are words filed in the database; no cut-off is given here.",
  "data": [
    {"compound": "CC(=O)N1CC2(CC(Nc3cc4c(cn3)C3(CC3)CN(C[C@H](O)CN3CCc5ccccc5C3)C4=O)C2)C1", "values": [
      {"measurement": "inhibition", "setting": "[1]", "value": "Dose-dependent-effect"},
      {"measurement": "IC50", "setting": "Cytochrome P450 2D6", "value": "> 50000", "unit": "nM"},
      {"measurement": "half-life at 1 µM", "setting": "[2]", "value": 1.39, "unit": "h"},
      {"measurement": "fraction unbound", "setting": "[3]", "value": 0.04},
      {"measurement": "Activity", "setting": "[4]", "value": "Non-toxic"},
      {"measurement": "IC50", "setting": "PRMT5/MEP50 complex [5]", "value": 20.7, "unit": "nM"},
      {"measurement": "IC50", "setting": "Ishikawa", "value": 5.47, "unit": "nM"},
      {"measurement": "inhibition", "setting": "[6]", "value": "Active; More Potent Than Gsk3326595"},
      {"measurement": "fraction unbound", "setting": "[7]", "value": 0.0204},
      {"measurement": "IC50", "setting": "A549", "value": 13.7, "unit": "nM"},
      {"measurement": "IC50", "setting": "Cytochrome P450 3A4", "value": "> 50000", "unit": "nM"},
      {"measurement": "IC50", "setting": "T47D", "value": 2.25, "unit": "nM"},
      {"measurement": "Activity", "setting": "PRMT5/MEP50 complex [8]", "value": "Active"},
      {"measurement": "Kd", "setting": "PRMT5/MEP50 complex [9]", "value": 104, "unit": "nM"},
      {"measurement": "half-life at 1 µM", "setting": "[10]", "value": 2.54, "unit": "h"},
      {"measurement": "IC50", "setting": "Cytochrome P450 2C9", "value": "> 50000", "unit": "nM"},
      {"measurement": "Activity", "setting": "[11]", "value": "Non-toxic"},
      {"measurement": "Activity", "setting": "[12]", "value": "Non-toxic"},
      {"measurement": "IC50", "setting": "MOLM-13", "value": 30.1, "unit": "nM"},
      {"measurement": "IC50", "setting": "A-427", "value": 72.3, "unit": "nM"},
      {"measurement": "fraction unbound", "setting": "[13]", "value": 0.0701},
      {"measurement": "half-life at 1 µM", "setting": "[14]", "value": 1.43, "unit": "h"},
      {"measurement": "inhibition in vivo at 12.5 mg/kg", "setting": "Z-138 [15]", "value": 104, "unit": "%"},
      {"measurement": "Activity", "setting": "[16]", "value": "Non-toxic"},
      {"measurement": "Activity", "setting": "[17]", "value": "Non-toxic"},
      {"measurement": "inhibition in vivo at 25 mg/kg", "setting": "Z-138 [18]", "value": 106, "unit": "%"}
    ]}
  ]
}
